From patent publication US20020137929A1, “1 - (3-heterocyclylphenyl) isothiourea, -isourea, -guanidine and -amidine herbicidal agents” (Intellectual Property Department, BASF Aktiengesellschaft, priority 1998, published 2002)

Key:
ZEAMX (Corn, Field) = experiment: Preemergence herbicidal evaluation; assay type: in vivo, Zea mays; conditions: rated 4-5 weeks after treatment
Outline: (§1)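 Scores (0–9) reflect visual comparison with control plants for stand, vigor, malformation, size and chlorosis. Compound was applied to the soil after sowing, before emergence, as an aqueous acetone spray (about 0.0156–0.500 kg/ha), and cups were kept in a greenhouse for 4–5 weeks.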

ECHCG (Barnyardgrass) = experiment: Postemergence herbicidal evaluation; assay type: in vivo, Echinochloa crus-galli; conditions: postemergence
Outline: (§2)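 Scores (0–9) reflect plant stand, vigor, malformation, size, chlorosis and general appearance relative to control, read 4 to 5 weeks after treatment and averaged where tests were repeated. Application: about 0.0156–0.500 kg/ha sprayed at 40 psi onto two-week seedlings.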

ORYSAT (Rice, Tebonnet) [1] = experiment: Rice tolerance to post-transplant applications, flooded paddy conditions (Table III); assay type: in vivo, Oryza sativa, (L.) Tebonnet; conditions: in vivo
Outline: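 Two ten-day-old Tebonnet seedlings transplanted into flooded silt loam (water 1.5 to 3 cm above soil); three days later the water surface was treated with compound in aqueous/acetone 50/50 at about 0.0313 to 0.500 kg/ha. Visual 0-9 injury rating versus control after three to four weeks in greenhouse.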

[2] = test system: TRZAWR (Wheat, Winter, cv Riband); experiment: Postemergence herbicidal evaluation; assay type: in vivo, Triticum aestivum; conditions: postemergence
Outline: as §2

[3] = test system: TRZAWR (Wheat, Winter, cv Riband); experiment: Preemergence herbicidal evaluation; assay type: in vivo, Triticum aestivum; conditions: rated 4-5 weeks after treatment
Outline: as §1

ORYSAT (Rice, Tebonnet) [4] = experiment: Postemergence herbicidal evaluation; assay type: in vivo, Oryza sativa, (L.) Tebonnet; conditions: postemergence
Outline: as §2

AMBEL (Ragweed, Common) = experiment: Preemergence herbicidal evaluation; assay type: in vivo, Ambrosia artemisifolia; conditions: rated 4-5 weeks after treatment
Outline: as §1

[5] = test system: ECHORC (Watergrass (Calif.)); experiment: Preemergence weed control under flooded paddy conditions; assay type: in vivo, Echinochloa oryzoides; conditions: rated 3-4 weeks after treatment
Outline: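 Silt loam, seeds in top 0.5 cm; flood held 1.5-3 cm; test cpd as acetone/water 50/50 into flood water, ~0.0313-0.500 kg/ha a.i.; greenhouse 3-4 wk; visual 0-9 score vs control.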

MOOVA (Monochoria) = experiment: as above; assay type: in vivo, Monochoria vaginalis; conditions: rated 3-4 weeks after treatment
Outline: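 Seeds or propagules sown in top 0.5 cm of silt loam soil, flooded 1.5 to 3 cm above surface throughout. Compound in 50/50 v/v aqueous/acetone pipetted into flood water at about 0.0313 to 0.500 kg/ha. Visual 0-9 rating versus control after three to four weeks in greenhouse.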

ORYSAT (Rice, Tebonnet) [6] = experiment: Preemergence herbicidal evaluation; assay type: in vivo, Oryza sativa, (L.) Tebonnet; conditions: rated 4-5 weeks after treatment
Outline: as §1

CASOB (Sicklepod) [7] = experiment: Preemergence herbicidal evaluation; assay type: in vivo, Cassia obtusifolia; conditions: rated 4-5 weeks after treatment
Outline: as §1

ABUTH (Velvetleaf) = experiment: Preemergence herbicidal evaluation; assay type: in vivo, Abutilon theophrasti; conditions: rated 4-5 weeks after treatment
Outline: as §1

CASOB (Sicklepod) [8] = experiment: Postemergence herbicidal evaluation; assay type: in vivo, Cassia obtusifolia; conditions: postemergence
Outline: as §2

CCOC(=O)CN1C(=O)C(Cc2ccccc2OCC(=O)O)S/C1=N/c1cc(-n2c(=O)cc(C(F)(F)F)n(C)c2=O)c(F)cc1Cl (stereo not drawn) [Compound 113, 5-[o-(Carboxymethoxy)benzyl]-2-{{2-chloro-5-[3,6-dihydro-3-methyl-2,6-dioxo-4-(trifluoromethyl)-1(2H)-pyrimidinyl]-4-fluorophenyl}imino}-4-oxo-3-thiazolidineacetic acid, 3-ethyl ester]
Preemergence herbicidal rating ZEAMX (ZEAMX (Corn, Field); rate 0.0156 kg/ha): 0.0
Preemergence herbicidal rating ZEAMX (ZEAMX (Corn, Field); rate 0.0313 kg/ha): 1.0
Preemergence herbicidal rating ZEAMX (ZEAMX (Corn, Field); rate 0.0625 kg/ha): 0.0
Preemergence herbicidal rating ZEAMX (ZEAMX (Corn, Field); rate 0.1250 kg/ha): 0.0
Preemergence herbicidal rating ZEAMX (ZEAMX (Corn, Field); rate 0.2500 kg/ha): 1.0
Herbicidal rating ECHCG (ECHCG (Barnyardgrass); rate 0.0158 kg/ha): 0.0
Herbicidal rating ECHCG (ECHCG (Barnyardgrass); rate 0.0315 kg/ha): 1.0
Herbicidal rating ECHCG (ECHCG (Barnyardgrass); rate 0.0630 kg/ha): 1.0
ORYSAT herbicidal effect rating (rice tolerance) (ORYSAT (Rice, Tebonnet) [1]): 0.0
Herbicidal rating TRZAWR ([2]; rate 0.0158 kg/ha): 2.0
Herbicidal rating TRZAWR ([2]; rate 0.0315 kg/ha): 2.0
Herbicidal rating TRZAWR ([2]; rate 0.0630 kg/ha): 3.0
Preemergence herbicidal rating TRZAWR ([3]; rate 0.0156 kg/ha): 0.0
Preemergence herbicidal rating TRZAWR ([3]; rate 0.0313 kg/ha): 0.0
Preemergence herbicidal rating TRZAWR ([3]; rate 0.0625 kg/ha): 0.0
Preemergence herbicidal rating TRZAWR ([3]; rate 0.1250 kg/ha): 0.0
Preemergence herbicidal rating TRZAWR ([3]; rate 0.2500 kg/ha): 0.0
Herbicidal rating ORYSAT (ORYSAT (Rice, Tebonnet) [4]; rate 0.0158 kg/ha): 2.0
Herbicidal rating ORYSAT (ORYSAT (Rice, Tebonnet) [4]; rate 0.0315 kg/ha): 2.0
Herbicidal rating ORYSAT (ORYSAT (Rice, Tebonnet) [4]; rate 0.0630 kg/ha): 2.5
Preemergence herbicidal rating AMBEL (AMBEL (Ragweed, Common); rate 0.0156 kg/ha): 0.0
Preemergence herbicidal rating AMBEL (AMBEL (Ragweed, Common); rate 0.0313 kg/ha): 0.0
Preemergence herbicidal rating AMBEL (AMBEL (Ragweed, Common); rate 0.0625 kg/ha): 0.0
Preemergence herbicidal rating AMBEL (AMBEL (Ragweed, Common); rate 0.1250 kg/ha): 0.0
Preemergence herbicidal rating AMBEL (AMBEL (Ragweed, Common); rate 0.2500 kg/ha): 2.0
ECHORC herbicidal effect rating ([5]; 0.0313 kg/ha): 4.0
ECHORC herbicidal effect rating ([5]; 0.0625 kg/ha): 4.0
ECHORC herbicidal effect rating ([5]; 0.1250 kg/ha): 5.0
ECHORC herbicidal effect rating ([5]; 0.2500 kg/ha): 7.0
MOOVA herbicidal effect rating (MOOVA (Monochoria); 0.0313 kg/ha): 9.0
MOOVA herbicidal effect rating (MOOVA (Monochoria); 0.0625 kg/ha): 9.0
MOOVA herbicidal effect rating (MOOVA (Monochoria); 0.1250 kg/ha): 9.0
MOOVA herbicidal effect rating (MOOVA (Monochoria); 0.2500 kg/ha): 9.0
Preemergence herbicidal rating ORYSAT (ORYSAT (Rice, Tebonnet) [6]; rate 0.0156 kg/ha): 0.0
Preemergence herbicidal rating ORYSAT (ORYSAT (Rice, Tebonnet) [6]; rate 0.0313 kg/ha): 0.0
Preemergence herbicidal rating ORYSAT (ORYSAT (Rice, Tebonnet) [6]; rate 0.0625 kg/ha): 0.0
Preemergence herbicidal rating ORYSAT (ORYSAT (Rice, Tebonnet) [6]; rate 0.1250 kg/ha): 0.0
Preemergence herbicidal rating ORYSAT (ORYSAT (Rice, Tebonnet) [6]; rate 0.2500 kg/ha): 0.0
Preemergence herbicidal rating CASOB (CASOB (Sicklepod) [7]; rate 0.0156 kg/ha): 0.0
Preemergence herbicidal rating CASOB (CASOB (Sicklepod) [7]; rate 0.0313 kg/ha): 0.0
Preemergence herbicidal rating CASOB (CASOB (Sicklepod) [7]; rate 0.0625 kg/ha): 0.0
Preemergence herbicidal rating CASOB (CASOB (Sicklepod) [7]; rate 0.1250 kg/ha): 0.0
Preemergence herbicidal rating CASOB (CASOB (Sicklepod) [7]; rate 0.2500 kg/ha): 0.0
Preemergence herbicidal rating ABUTH (ABUTH (Velvetleaf); rate 0.0156 kg/ha): 0.0
Preemergence herbicidal rating ABUTH (ABUTH (Velvetleaf); rate 0.0313 kg/ha): 1.0
Preemergence herbicidal rating ABUTH (ABUTH (Velvetleaf); rate 0.0625 kg/ha): 1.0
Preemergence herbicidal rating ABUTH (ABUTH (Velvetleaf); rate 0.1250 kg/ha): 9.0
Preemergence herbicidal rating ABUTH (ABUTH (Velvetleaf); rate 0.2500 kg/ha): 9.0
Herbicidal rating CASOB (CASOB (Sicklepod) [8]; rate 0.0158 kg/ha): 0.0
Herbicidal rating CASOB (CASOB (Sicklepod) [8]; rate 0.0315 kg/ha): 0.0
Herbicidal rating CASOB (CASOB (Sicklepod) [8]; rate 0.0630 kg/ha): 4.0
